In patent US7829063B2, “Development of molecular imaging probes for carbonic anhydrase-IX using click chemistry” (Siemens Medical Solutions USA, Inc., priority 2007, dated 2010):
Read-outs that look alike come from different tables or passages of the source.

Target: T1, CA-IX (Homo sapiens, UniProt Q16790)
T1 construct: His tag (C); purchased R&D Systems Inc. 2188-CA; host or cells: mouse myeloma cell line NS0
Assay: CA-IX combinatorial library screening, competitive fluorescence-based assay with dansylamide (DNSA)
Format: binding
Details: sample concentrations 100 nM and 1000 nM, DNSA 200 μM, screening at 1 μM; for inhibition at 1 µM: 1 h
Description: General. CA-IX human recombinant enzyme was expressed with a C-terminal His tag in a mouse myeloma cell line, NS0 (R&D Systems Inc., catalog number 2188-CA). The human red blood cells were obtained from Research Blood Components, LLC. All absorbance measurements were performed on a SPECTRA MAX M2 plate reader at 25° C. The LC/MS analyses were performed on an Agilent 1100 series LC/MSD (SL) using a 30×2.1 mm Zorbax C8 column with a Phenomenex C18 pre-column. Compound detection was accomplished by electrospray mass spectroscopy in positive selected ion mode (LC/MS-SIM). The elution solvents were acetonitrile and water, contained 0.05% TFA. Nuclear magnetic resonance (NMR) spectra were obtained on a Bruker AMX 300 MHz spectrometer or a Varian 400. 19F NMR spectra were recorded on a Bruker AMX 282.35 MHz or a Varian 400 spectrometer. The mass spectra were recorded on an Agilent 1100 series LC/MSD with electrospray mass spectroscopic detection. Flash column chromatography was performed on Merck silica gel (40-63 μm) using the solvent system indicated. The radiochemical and chemical purities were analyzed by RP-HPLC.
General Combinatorial Library Screening Protocol for CA-IX
The CA-IX screening assay was employed for testing libraries derived from the various “anchor” molecules, using ethoxzolamide as a positive control. The assay was performed at a substrate (dansylamide, DNSA) concentration of 200 μM, and sample concentrations of 100 nM and 1000 nM, respectively. A modified competitive fluorescence-based assay (A. Jain, S. G. Huang, G. M. Whitesides, J. Am. Chem. Soc. 1994, 116, 5057) was used to measure CA-IX activity. The enzymatic assay was carried out in a 96-well plate. To the wells, deionized water, 40 μL of phosphate buffer (250 mM, pH 7.4), 2.4 μL of CA-IX (17 μM), and 2 μL or 20 μL of inhibitor (concentration of 100 nM or 1000 nM) were added to achieve a final volume of 180 μL. Reactions were initiated by adding 20 μL DNSA (200 μM) to each well and the plate was incubated at 25° C. for 1 hour. The fluorescence intensities from each well of the plate were then read at 460 nm using a plate reader with an excitation wavelength of 290 nm.

[1] = Table 2, Libraries 4-7, read-out: In Vitro Binding Assay (Library (Screening))
[2] = Table 1, Libraries 1-3, read-out: In Vitro Binding Assay (Library Screening)

CCOC(=O)CCN(Cc1ccco1)C(=O)[C@H](Cc1ccccc1)n1cc(COc2ccc3nc(S(N)(=O)=O)sc3c2)nn1 [DHK-2-67]
inhibition at 1 µM [1]: < 40%

NS(=O)(=O)c1ccc(-c2cn([C@@H](Cc3ccccc3)C(=O)NCCCO)nn2)cc1 [DHK-2-14]
inhibition at 1 µM [1]: < 40%

NCCCn1cc(CNC(=O)c2ccc(S(N)(=O)=O)cc2)nn1 [DHK95]
inhibition at 1 µM [2]: < 40%

NCCCn1cc(-c2ccc(S(N)(=O)=O)cc2)nn1 [DHK108]
inhibition at 1 µM [2]: < 40%

NS(=O)(=O)c1ccc(-c2cn(CCn3c(=O)[nH]c4ccccc4c3=O)nn2)cc1 [DHK78]
inhibition at 1 µM [2]: < 40%

CC(C)[C@@H](C(=O)NCc1ccccn1)n1cc(COc2ccc3nc(S(N)(=O)=O)sc3c2)nn1 [DHK-2-35]
inhibition at 1 µM [1]: < 40%

NS(=O)(=O)c1ccc(-c2cn(CCCCCCO)nn2)cc1 [DHK73]
inhibition at 1 µM [2]: < 40%

CC(C)[C@@H](C(=O)O)n1cc(CNC(=O)c2ccc(S(N)(=O)=O)cc2)nn1 [DHK60]
inhibition at 1 µM [2]: < 40%

NS(=O)(=O)c1ccc(C(=O)NCc2cn(Cc3cccc(Br)c3)nn2)cc1 [DHK47]
inhibition at 1 µM [2]: < 40%

CC(C)C[C@@H](C(=O)NCc1ccccc1)n1cc(-c2ccc(S(N)(=O)=O)cc2)nn1 [DHK12]
inhibition at 1 µM [2]: < 40%

C=CC1C[N@@]2CCC1CC2[C@@H](c1ccnc2ccc(OC)cc12)n1cc(-c2ccc(S(N)(=O)=O)cc2)nn1 (some centres unmarked) [DHK72]
inhibition at 1 µM [2]: < 40%

CC(C)[C@@H](C(=O)N1CCN(c2ncccn2)CC1)n1cc(-c2ccc(S(N)(=O)=O)cc2)nn1 [DHK190]
inhibition at 1 µM [1]: < 40%

CC(C)[C@@H](C(=O)NCCCO)n1cc(COc2ccc3nc(S(N)(=O)=O)sc3c2)nn1 [DHK-2-38]
inhibition at 1 µM [1]: < 40%

NS(=O)(=O)c1ccc(-c2cn(-c3cccc(C(=O)NN4CCOCC4)c3)nn2)cc1 [DHK104]
inhibition at 1 µM [2]: < 40%

NS(=O)(=O)c1nc2ccc(OCc3cn([C@@H](Cc4ccccc4)C(=O)NC4CCCCC4)nn3)cc2s1 [DHK-2-63]
inhibition at 1 µM [1]: < 40%

NS(=O)(=O)c1ccc(-c2cn(CC(O)CN3C(=O)c4ccccc4C3=O)nn2)cc1 (centres unmarked) [DHK8]
inhibition at 1 µM [2]: < 40%

COC(=O)[C@H](C)NC(=O)[C@H](C(C)C)n1cc(-c2ccc(S(N)(=O)=O)cc2)nn1 [DHK177]
inhibition at 1 µM [1]: < 40%

NS(=O)(=O)c1nc2ccc(OCc3cn([C@@H](Cc4ccccc4)C(=O)NCc4ccc(C(F)(F)F)cc4)nn3)cc2s1 [DHK-2-51]
In Vitro Binding Assay (Library Screening) (Table 2, Libraries 4-7): √

CN(Cc1ccccc1)C(=O)[C@H](Cc1ccccc1)n1cc(-c2ccc(S(N)(=O)=O)cc2)nn1 [DHK-2-2]
inhibition at 1 µM [1]: < 40%

CC(C)[C@@H](C(=O)NCc1ccc(C(F)(F)F)cc1)n1cc(COc2ccc3nc(S(N)(=O)=O)sc3c2)nn1 [DHK-2-24]
In Vitro Binding Assay (Library Screening) (Table 2, Libraries 4-7): √ √

CC(C)[C@@H](C(=O)NCc1ccc(C(F)(F)F)cc1)n1cc(-c2ccc(S(N)(=O)=O)cc2)nn1 [DHK168]
inhibition at 1 µM [1]: < 40%

CC(C)[C@@H](C(=O)NC1CCCCC1)n1cc(CNC(=O)c2ccc(S(N)(=O)=O)cc2)nn1 [DHK50]
inhibition at 1 µM [2]: < 40%

NS(=O)(=O)c1ccc(-c2cn(CC(=O)n3ncc4ccccc43)nn2)cc1 [DHK65]
inhibition at 1 µM [2]: < 40%

NS(=O)(=O)c1nc2ccc(OCc3cn(-c4ccnc5cc(Cl)ccc45)nn3)cc2s1 [DHK136]
inhibition at 1 µM [2]: < 40%

CC(C)C(C(=O)NCc1cc(F)ccc1F)n1cc(CNC(=O)c2ccc(S(N)(=O)=O)cc2)nn1 (centres unmarked) [DHK40]
inhibition at 1 µM [2]: < 40%

CC(C)[C@@H](C(=O)N(C)Cc1ccccc1)n1cc(COc2ccc3nc(S(N)(=O)=O)sc3c2)nn1 [DHK-2-26]
inhibition at 1 µM [1]: < 40%

CC(C)[C@@H](C(=O)NCc1ccc(-c2ccccn2)s1)n1cc(COc2ccc3nc(S(N)(=O)=O)sc3c2)nn1 [DHK-2-29]
inhibition at 1 µM [1]: < 40%

CCOC(=O)CCN(Cc1ccco1)C(=O)[C@H](Cc1ccccc1)n1cc(-c2ccc(S(N)(=O)=O)cc2)nn1 [DHK-2-16]
inhibition at 1 µM [1]: < 40%

CC(C)(C)c1cc(C(=O)Cn2cc(COc3ccc4nc(S(N)(=O)=O)sc4c3)nn2)cc(C(C)(C)C)c1O [DHK132]
inhibition at 1 µM [2]: < 40%

Cc1ccc(C)c(CNC(=O)[C@H](Cc2ccccc2)n2cc(COc3ccc4nc(S(N)(=O)=O)sc4c3)nn2)c1 [DHK120]
inhibition at 1 µM [2]: < 40%

CCCCCC[C@@H](O)[C@@H](O)c1ccc(Cn2cc(COc3ccc4nc(S(N)(=O)=O)sc4c3)nn2)cc1 [DHK135]
inhibition at 1 µM [2]: < 40%

NS(=O)(=O)c1nc2ccc(OCc3cn([C@@H](Cc4ccccc4)C(=O)N4CCN(c5ncccn5)CC4)nn3)cc2s1 [DHK-2-55]
inhibition at 1 µM [1]: < 40%

CC(CN(C)C)Cn1cc(CNC(=O)c2ccc(S(N)(=O)=O)cc2)nn1 (centres unmarked) [DHK43]
inhibition at 1 µM [2]: < 40%

CC(C)[C@@H](C(=O)NCCN1CCN(Cc2ccccc2)CC1)n1cc(-c2ccc(S(N)(=O)=O)cc2)nn1 [DHK191]
inhibition at 1 µM [1]: < 40%

Cc1onc(-c2ccccc2)c1CNC(=O)[C@H](C(C)C)n1cc(-c2ccc(S(N)(=O)=O)cc2)nn1 [DHK182]
inhibition at 1 µM [1]: < 40%

NS(=O)(=O)c1ccc(-c2cn([C@@H](Cc3ccccc3)C(=O)NCC3CC3)nn2)cc1 [DHK-2-13]
inhibition at 1 µM [1]: < 40%

CC(C)[C@@H](C(=O)N1CCN(c2ccccn2)CC1)n1cc(-c2ccc(S(N)(=O)=O)cc2)nn1 [DHK174]
inhibition at 1 µM [1]: < 40%

NS(=O)(=O)c1nc2ccc(OCc3cn(C(c4ccccc4)[C@@H](OC/C=C/c4ccccc4)c4ccccc4)nn3)cc2s1 (some centres unmarked) [DHK138]
inhibition at 1 µM [2]: < 40%

CCOC(=O)CCN(Cc1ccco1)C(=O)[C@H](C(C)C)n1cc(-c2ccc(S(N)(=O)=O)cc2)nn1 [DHK183]
inhibition at 1 µM [1]: < 40%

NS(=O)(=O)c1ccc(C(=O)NCc2cn(CCN3CCOCC3)nn2)cc1 [DHK34]
inhibition at 1 µM [2]: < 40%

NS(=O)(=O)c1ccc(-c2cn(C3CCN(S(=O)(=O)/C=C/c4ccccc4)CC3)nn2)cc1 [DHK109]
inhibition at 1 µM [2]: < 40%

Cn1c(CNC(=O)[C@H](Cc2ccccc2)n2cc(COc3ccc4nc(S(N)(=O)=O)sc4c3)nn2)nc2ccccc21 [DHK-2-73]
inhibition at 1 µM [1]: < 40%

NS(=O)(=O)c1ccc(C(=O)NCc2cn(CC(=O)N3CCN(c4cc(Cl)cc(Cl)c4)CC3)nn2)cc1 [DHK94]
inhibition at 1 µM [2]: < 40%

CCOC(=O)C(Cc1ccccc1)NC(=O)[C@H](Cc1ccccc1)n1cc(COc2ccc3nc(S(N)(=O)=O)sc3c2)nn1 (some centres unmarked) [DHK-2-59]
inhibition at 1 µM [1]: < 40%

NS(=O)(=O)c1ccc(-c2cn([C@@H](Cc3ccccc3)C(=O)NCc3ccc(F)cc3)nn2)cc1 [DHK-2-1]
inhibition at 1 µM [1]: < 40%

CC1CCCN(C(=O)C(C(C)C)n2cc(CNC(=O)c3ccc(S(N)(=O)=O)cc3)nn2)C1 (centres unmarked) [DHK44]
inhibition at 1 µM [2]: < 40%

CCOC(=O)C1CCN(C(=O)[C@H](Cc2ccccc2)n2cc(COc3ccc4nc(S(N)(=O)=O)sc4c3)nn2)CC1 [DHK-2-68]
In Vitro Binding Assay (Library Screening) (Table 2, Libraries 4-7): √

NS(=O)(=O)c1nc2ccc(OCc3cn([C@@H](Cc4ccccc4)C(=O)NCc4ccccn4)nn3)cc2s1 [DHK-2-62]
inhibition at 1 µM [1]: < 40%

CC(C)[C@@H](C(=O)NCc1ccccc1)n1cc(COc2ccc3nc(S(N)(=O)=O)sc3c2)nn1 [DHK126]
inhibition at 1 µM [2]: < 40%

NS(=O)(=O)c1ccc(-c2cn([C@@H](Cc3ccccc3)C(=O)NCc3ccccn3)nn2)cc1 [DHK-2-11]
inhibition at 1 µM [1]: < 40%

CC(C)[C@@H](C(=O)NCc1ccccn1)n1cc(-c2ccc(S(N)(=O)=O)cc2)nn1 [DHK178]
inhibition at 1 µM [1]: < 40%

NS(=O)(=O)c1ccc(-c2cn([C@@H](Cc3ccccc3)C(=O)NC3CCCCC3)nn2)cc1 [DHK-2-12]
inhibition at 1 µM [1]: < 40%

NS(=O)(=O)c1nc2ccc(OCc3cn([C@@H](Cc4ccccc4)C(=O)NCc4ccc(F)cc4)nn3)cc2s1 [DHK-2-52]
inhibition at 1 µM [1]: < 40%

NS(=O)(=O)c1ccc(-c2cn([C@@H](Cc3ccccc3)C(=O)NCCN3CCN(Cc4ccccc4)CC3)nn2)cc1 [DHK-2-23]
inhibition at 1 µM [1]: < 40%

CN(C)Cc1ccc(CSCCNC(=O)[C@H](Cc2ccccc2)n2cc(-c3ccc(S(N)(=O)=O)cc3)nn2)o1 [DHK-2-3]
inhibition at 1 µM [1]: < 40%

CC(C)C(C(=O)Nc1ccc(-c2ccccc2)cc1)n1cc(COc2ccc3nc(S(N)(=O)=O)sc3c2)nn1 (centres unmarked) [DHK134]
inhibition at 1 µM [2]: < 40%

Cc1ccnc(NC(=O)[C@H](Cc2ccccc2)n2cc(CNC(=O)c3ccc(S(N)(=O)=O)cc3)nn2)c1 [DHK36]
inhibition at 1 µM [2]: < 40%

CC(C)[C@@H](C(=O)NCCc1ccsc1)n1cc(CNC(=O)c2ccc(S(N)(=O)=O)cc2)nn1 [DHK91]
inhibition at 1 µM [2]: < 40%

COC(=O)C(Cc1ccc(C(=O)O)cc1)n1cc(CNC(=O)c2ccc(S(N)(=O)=O)cc2)nn1 (centres unmarked) [DHK56]
inhibition at 1 µM [2]: < 40%
